Source: patent publication US20240368157A1, “FORMS AND COMPOSITIONS OF A JAK2 INHIBITOR” (Ajax Therapeutics, Inc., priority 2023, published 2024)
In brackets after ≈: the same amount, converted by molar mass.

Assays:
[1] = biological target: T1, JAK2 (JH1domain-catalytic, Y1007F, Y1008F) kinase (Homo sapiens, UniProt O60674, Y1007F/Y1008F); assay: JAK2 Binding Assay
T1 construct: JAK2 (JH1domain-catalytic, Y1007F, Y1008F) kinase was expressed as N-terminal fusion; made in house; host or cells: transiently transfected HEK293 cells
T1 sequence (O60674 849-1124 Y1007F/Y1008F limits assumed): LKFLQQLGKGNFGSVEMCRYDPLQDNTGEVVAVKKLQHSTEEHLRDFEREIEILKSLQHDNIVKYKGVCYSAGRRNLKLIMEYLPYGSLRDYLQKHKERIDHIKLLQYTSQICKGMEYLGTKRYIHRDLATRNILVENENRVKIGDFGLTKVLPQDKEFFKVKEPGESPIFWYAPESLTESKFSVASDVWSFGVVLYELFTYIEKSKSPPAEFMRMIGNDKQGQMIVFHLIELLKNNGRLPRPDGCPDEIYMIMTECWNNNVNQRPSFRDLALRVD
Method: JAK2 (JH1domain-catalytic, Y1007F, Y1008F) kinase was expressed as N-terminal fusion to the DNA binding domain of NFkB in transiently transfected HEK293 cells and subsequently tagged with DNA for qPCR detection. Streptavidin-coated magnetic beads were treated with biotinylated small molecule ligands for 30 minutes at room temperature to generate affinity resins for kinase assays. The liganded beads were blocked with excess biotin and washed with blocking buffer (SeaBlock (Pierce), 1% BSA, 0.05% Tween 20, 1 mmol/L DTT) to remove unbound ligand and to reduce nonspecific phage binding. Binding reactions were assembled by combining kinases, liganded affinity beads, and test compounds in 1× binding buffer (1×PBS, 0.05% Tween 20, 0.1% BSA, 1 mmol/L DTT). Test compound was prepared as 111× stocks in 100% DMSO and directly diluted into the assay wells. All reactions were performed in polypropylene 384-well plates in a final volume of 0.02 mL. The assay plates were incubated at room temperature with shaking for 1 hour and the affinity beads were washed with wash buffer (1×PBS, 0.05% Tween 20). The beads were then re-suspended in elution buffer (1×PBS, 0.05% Tween 20, 0.5 μmol/L non-biotinylated affinity ligand) and incubated at room temperature with shaking for 30 minutes. The kinase concentration in the eluate was measured by qPCR.

[2] = Hepatocyte Stability Assay (rat hepatocytes); assay type: in vitro ADME; settings: cryopreserved hepatocytes, read-out: Rat Heps CLint
Method: 10 mM stock solutions of test compound and positive control are prepared in DMSO. Stock solutions are diluted to 100 μM by combining 198 μL of 50% acetonitrile/50% water and 2 μL of 10 mM stock solution. Verapamil is used as positive control in the assay. Vials of cryopreserved hepatocytes are thawed in a 37° C. water bath with gently shaking. The contents are poured into the 50 mL thawing medium conical tube. Vials are centrifuged at 100 g for 10 minutes at room temperature. Thawing medium is aspirated and hepatocytes are re-suspended with serum-free incubation medium to yield ˜1.5×10^6 cells/mL. Cell viability and density are counted using a Trypan Blue exclusion, and then cells are diluted with serum-free incubation medium to a working cell density of 0.5×10^6 viable cells/mL. A portion of the hepatocytes at 0.5×10^6 viable cells/mL are boiled for 5 min prior to adding to the plate as negative control to eliminate the enzymatic activity so that little or no substrate turnover should be observed. Aliquots of 198 μL hepatocytes are dispensed into each well of a 96-well non-coated plate. The plate is placed in the incubator for approximately 10 minutes. Aliquots of 2 μL of the 100 μM test compound and 2 μL positive control are added into respective wells of a non-coated 96-well plate to start the reaction. The final concentration of test compound is 1 μM. […]

[3] = Kinetic Solubility Assay; assay type: physicochemical; settings: aqueous buffer, kinetic from dmso stock, PBS, RT, pH of the reported value not stated (method: pH 4.0 and pH 7.4)
Method: Stock solutions of test compounds are prepared in DMSO at the concentration of 10 mM, and a stock solution of control compound is prepared in DMSO at the concentration of 30 mM. Diclofenac is used as positive control in the assay. 30 μL stock solution of each compound is placed into their a 96-well rack, followed by adding 970 μL of PBS at pH 4.0 and pH 7.4 into each vial of the cap-less solubility sample plate. This study is performed in duplicate. One stir stick is added to each vial and then vials are sealed using a molded PTDE/SIL 96-Well Plate Cover. The solubility sample plate is transferred to the Thermomixer comfort plate shaker and incubated at RT for 2 hours with shaking at 1100 rpm. After 2 hours incubation, stir sticks are removed using a big magnet and all samples from the solubility sample plate are transferred into the filter plate. All the samples are filtered by vacuum manifold. The filtered samples are diluted with methanol. Samples are analyzed by LC-MS/MS and quantified against a standard of known concentration in DMSO using LC coupled with Mass spectral peak identification and quantitation. The solubility values of the test compounds are calculated as follows, wherein INJ VOL is injection volume, DF is dilution factor, and STD is standard: […]

[4] = Interconversion slurry experiments; settings: slurry EtOH:H2O (90:10), 65° C.; material with small peak at ˜8.0 °2θ
Method: Mixtures of Form H and Form I with Form B were utilized in these interconversion slurry experiments. […] The interconversion slurries were performed at ambient and elevated (65° C.) temperatures in various solvents and solvent mixtures.

| Kd [1] [nM] | CLint scaled at 1 μM [2] [mL/min/kg] | solubility at 2 h [3] [µM] | degradation by HPLC analysis [4] | Compound |
| --- | --- | --- | --- | --- |
| < 10 | 17 to 35 | 9 to 100 (≈ 4.75 to 52.7 µg/mL) | small amount of degradation | CN(C)C(=O)Nc1cc(Oc2cnc3nc(Nc4cc(C(F)(F)F)cn(C)c4=O)n(C)c3c2C#N)ccn1 [Compound 1, 3-(4-((7-cyano-1-methyl-2-((1-methyl-2-oxo-5-(trifluoromethyl)-1,2-dihydropyridin-3-yl)amino)-1H-imidazo[4,5-b]pyridin-6-yl)oxy)pyridin-2-yl)-1,1-dimethylurea] |
|  | 35 to 45 | 100 to 200 (≈ 56.8 to 114 µg/mL) |  | CCN1CCN(Cc2ccc(Nc3nc4ccc(Oc5ccnc(NC(C)=O)c5)cc4n3C)cc2C(F)(F)F)CC1 [Compound R-1, reference compound] |
